Reference: US20110082101A1, “COMBINATIONS COMPRISING EPOTHILONES AND ANTI-METABOLITES” (priority 2002, published 2011)

What was measured:
advanced colon cancer = assay: Treatment of a human patient having advanced colon cancer with epothilone B plus gemcitabine hydrochloride; type: in vivo; conditions: Example 5, one human patient, combination: epothilone B 0.5 mg/m^2 five minutes bolus infusion weekly for 3 weeks, one week off, plus gemcitabine hydrochloride 800 mg/m^2 twice daily, cycle repeated several times
Method: (§1) A human patient having advanced colon cancer receives 0.5 mg/m^2 of epothilone B as a five minutes bolus infusion weekly for 3 weeks followed by one week off. Immediately following said treatment, gemcitabine hydrochloride is applied orally to said patient twice daily at a dosage of 800 mg/m^2. The whole treatment cycle is applied to the patient several times. Stable disease is observed for about 3% months.

advanced renal cancer = assay: Treatment of a human patient having advanced renal cancer with epothilone B plus capecitabine; type: in vivo; conditions: Example 1, one human patient, combination: epothilone B 0.5 mg/m^2 five minutes bolus infusion weekly for 3 weeks, one week off, plus capecitabine orally 1250 mg/m^2 twice daily for two weeks, cycle repeated several times
Method: as §1, with “renal” for “colon”, “Starting in the second week of the epothilone treatment and at least two hours after” for “Immediately following”, “capecitabine” for “gemcitabine hydrochloride”, “1250 mg/m^2 for two weeks followed by one week off.” for “800 mg/m^2.”, “8” for “3%”

C/C(=C\c1csc(C)n1)[C@@H]1C[C@@H]2O[C@]2(C)CCC[C@H](C)[C@H](O)[C@@H](C)C(=O)C(C)(C)[C@@H](O)CC(=O)O1 [epothilone B]
Stable disease observed for (duration) (advanced colon cancer): about 3% | Stable disease observed for (duration) (advanced renal cancer): about 8 months
